Measurements from patent publication US10323018B2 (Millennium Pharmaceuticals, Inc., priority 2015, dated 2019).

Assays:
[1] = test system: PC3 cells; assay: PC3 growth inhibition (Cell-titer glo, 72 hours); assay type: cell-based; settings: Homo sapiens, PC-3, 72 h, read-out: Percent Viability, PC3 cells, compound concentration 1.667 μM, 72 hours
In short: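 After 72 h compound treatment in AIM serum-free medium (37 °C, 5% CO2), viability of overnight-plated PC3 cells (8×10^4 cells/ml, RPMI1640-maintained) is read by CellTiter-Glo luminescence versus DMSO. Curves give GI50, LD50 or single-concentration % remaining viability.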

[2] = biological target: hNAMPT protein (Homo sapiens (Human), UniProt P43490); assay: NAMPT enzyme assay (TR-FRET/HTRF with BodiPY ligand); assay type: binding; settings: for inhibition at 1 µM: NAMPT inhibition at compound concentration 1 μM, read-out: Percent Inhibition; for IC50: NAMPT inhibition, IC50 range class
In short: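 Ligand displacement by TR-FRET: BodiPY emission (520 nm) over terbium (486 nm) after 320 nm excitation. Compound, BodiPY ligand, hNAMPT and anti-6His-Tb incubated 1 h at room temperature, dark, at pH 7.5. Percent inhibition computed versus DMSO; concentration-response curves fitted for IC50.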

Chain of hNAMPT protein (P43490 whole entry): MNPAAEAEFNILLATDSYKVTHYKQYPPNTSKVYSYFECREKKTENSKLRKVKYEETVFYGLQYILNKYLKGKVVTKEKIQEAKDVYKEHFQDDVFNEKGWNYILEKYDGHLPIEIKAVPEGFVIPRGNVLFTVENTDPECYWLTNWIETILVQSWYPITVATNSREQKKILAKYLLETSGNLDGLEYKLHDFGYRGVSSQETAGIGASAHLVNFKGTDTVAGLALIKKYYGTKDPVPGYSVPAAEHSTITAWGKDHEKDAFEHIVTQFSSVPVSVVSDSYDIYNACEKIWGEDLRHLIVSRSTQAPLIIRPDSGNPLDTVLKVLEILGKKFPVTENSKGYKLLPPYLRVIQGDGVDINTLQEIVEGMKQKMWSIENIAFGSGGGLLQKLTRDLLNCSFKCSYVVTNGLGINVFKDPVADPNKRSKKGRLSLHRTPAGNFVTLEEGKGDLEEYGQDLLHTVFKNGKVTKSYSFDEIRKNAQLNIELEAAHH

CCOc1cc(-c2ccnc(C)c2)nc2cc(C(=O)NCc3nc4cnccc4[nH]3)ccc12 [Compound I-99, 4-ethoxy-N-(1H-imidazo[4,5-c]pyridin-2-ylmethyl)-2-(2-methylpyridin-4-yl)quinoline-7-carboxamide]
viability at 1.667 µM [1]: 2%
inhibition at 1 µM [2]: > 99%
IC50 [2]: < 10 nM

CCOc1cc(-c2ccc(F)cc2)nc2cc(C(=O)NCc3nc4cnccc4n3C)ccc12 [Compound I-178, 4-ethoxy-2-(4-fluorophenyl)-N-[(1-methyl-1H-imidazo[4,5-c]pyridin-2-yl)methyl]quinoline-7-carboxamide]
viability at 1.667 µM [1]: 2%
inhibition at 1 µM [2]: 99%
IC50 [2]: < 10 nM

CCOc1cc(-c2ccnc(C)c2)nc2cc(C(=O)NCCc3nnc[nH]3)ccc12 [Compound I-172, 4-ethoxy-2-(2-methylpyridin-4-yl)-N-[2-(4H-1,2,4-triazol-3-yl)ethyl]quinoline-7-carboxamide]
viability at 1.667 µM [1]: 6%
inhibition at 1 µM [2]: 71%
IC50 [2]: > 100 nM

CCOc1cc(-c2ccc(=O)n(C)c2)nc2cc(C(=O)NCCCc3cc[nH]n3)ccc12 [Compound I-123, 4-ethoxy-2-(1-methyl-6-oxo-1,6-dihydropyridin-3-yl)-N-[3-(1H-pyrazol-3-yl)propyl]quinoline-7-carboxamide]
viability at 1.667 µM [1]: 2%
inhibition at 1 µM [2]: > 99%
IC50 [2]: 10 to 50 nM

COCCOc1cc(-c2ccc(F)cc2)nc2cc(C(=O)NCCCc3ncn[nH]3)ccc12 [Compound I-124, N-(3-(4H-1,2,4-triazol-3-yl)propyl)-2-(4-fluorophenyl)-4-(2-methoxyethoxy)quinoline-7-carboxamide]
viability at 1.667 µM [1]: 2%
inhibition at 1 µM [2]: 92%
IC50 [2]: 50 to 100 nM

CCOc1cc(-c2ccc(F)cc2)nc2cc(C(=O)NCCc3cncn3C)ccc12 [Compound I-2, 4-ethoxy-2-(4-fluorophenyl)-N-[2-(1-methyl-1H-imidazol-5-yl)ethyl]quinoline-7-carboxamide]
viability at 1.667 µM [1]: 2%
inhibition at 1 µM [2]: > 99%
IC50 [2]: < 10 nM

CCOc1cc(-c2ccccc2)nc2cc(C(=O)NCCCc3nnc[nH]3)ccc12 [Compound I-207, 4-ethoxy-2-phenyl-N-[3-(4H-1,2,4-triazol-3-yl)propyl]quinoline-7-carboxamide]
viability at 1.667 µM [1]: 2%
inhibition at 1 µM [2]: 96%
IC50 [2]: 10 to 50 nM

CCOc1nc(-c2ccc(Cl)s2)nc2cc(C(=O)NCCCc3ncc[nH]3)ccc12 [Compound I-35, 2-(5-chloro-2-thienyl)-4-ethoxy-N-[3-(1H-imidazol-2-yl)propyl]quinazoline-7-carboxamide]
viability at 1.667 µM [1]: 1%
inhibition at 1 µM [2]: > 99%
IC50 [2]: < 10 nM

CCOc1cc(-c2ccnc(OC)c2)nc2cc(C(=O)NCCc3nnc[nH]3)ccc12 [Compound I-191, 4-ethoxy-2-(2-methoxypyridin-4-yl)-N-[2-(4H-1,2,4-triazol-3-yl)ethyl]quinoline-7-carboxamide]
viability at 1.667 µM [1]: 10%
inhibition at 1 µM [2]: 79%
IC50 [2]: > 100 nM

CCc1nc(-c2ccc(Cl)cc2)nc2cc(C(=O)NCCCc3ncc[nH]3)ccc12 [Compound I-33, 2-(4-chlorophenyl)-4-ethyl-N-[3-(1H-imidazol-2-yl)propyl]quinazoline-7-carboxamide]
viability at 1.667 µM [1]: 1%
inhibition at 1 µM [2]: 97%
IC50 [2]: 10 to 50 nM

CCOc1cc(-c2ccnc(C)c2)nc2cc(C(=O)NCCCc3[nH]nnc3C)ccc12 [Compound I-75, 4-ethoxy-2-(2-methylpyridin-4-yl)-N-[3-(4-methyl-1H-1,2,3-triazol-5-yl)propyl]quinoline-7-carboxamide]
viability at 1.667 µM [1]: 1%
inhibition at 1 µM [2]: 94%
IC50 [2]: 10 to 50 nM

CCOc1c(F)c(-c2ccc(F)cc2)nc2cc(C(=O)NCCCc3cnn[nH]3)ccc12 [Compound I-73, 4-ethoxy-3-fluoro-2-(4-fluorophenyl)-N-[3-(1H-1,2,3-triazol-4-yl)propyl]quinoline-7-carboxamide]
viability at 1.667 µM [1]: 1%
inhibition at 1 µM [2]: 100%
IC50 [2]: < 10 nM
